Test results: US20240101599A1, “PEPTIDE, CELL GROWTH PROMOTER, PROTEIN PRODUCTION PROMOTER, CULTURE MEDIUM, CELL GROWTH METHOD USING PEPTIDE, AND PROTEIN PRODUCTION METHOD USING PEPTIDE” (Maruhachi Muramatsu, Inc., priority 2020, published 2024)
Peptide text beside a SMILES is read from it.

Legend:
CHO-K1 = test: Relationship between concentration of each peptide solution and viable cell count (absorbance); assay type: cell-based; settings: for Absorbance (450 nm): 5 days, MEMα without FBS, n = 3 average, 0 mM = 0.0000; for cell growth promotion, order of the peptides: in words, promoted in the order GEK, DGP, AGK, GPP, GGP, AEK, AGG, ASN, EGK (strongest first)
Protocol: Peptides having the sequences of Gly-Glu-Lys (GEK), Asp-Gly-Pro (DGP), Ala-Gly-Lys (AGK), Gly-Pro-Pro (GPP), Gly-Gly-Pro (GGP), Ala-Glu-Lys (AEK), Ala-Gly-Gly (AGG), Ala-Ser-Asn (ASN), and Glu-Gly-Lys (EGK), and Gly-Gly-Gly (GGG) are synthesized to prepare each of peptide solutions at 10-fold concentrations shown in Tables 1 to 10.
A cell suspension prepared such that CHO-K1 (RI KEN BioResource Research Center, cell number: RCB2330) was at 3×10^4 cells/mL was seeded in a 96-well plate at 100 μL/well and cultured in an incubator at 37° C. and 5% CO2 for 24 hours. As a culture medium, an MEMα culture medium (Gibco) containing 10% FBS was used.
After removing the culture medium from each well and washing with the MEMα culture medium (100 μL), 90 μL of a new MEMa culture medium was dispensed into each well, and each peptide solution (10 μL) was added (total 100 μL/well) such that final concentrations were within a range of 0 mM to 5 mM as shown in Tables 1 to 10 to perform culture for 5 days. A similar culture test was performed using a system containing neither peptide nor FBS as a comparative sample. After culturing for 5 days, 10 μL/well of a viable cell count measurement reagent SF (Nacalai Tesque Inc.) was added, and a color reaction was carried out in an incubator at 37° C. and 5% CO2 for 2 hours to measure an absorbance at 450 nm with a plate reader. A reference wavelength was 630 nm. It was confirmed that the absorbance at 450 nm correlated with the cell number.
The above preparation, culture, and measurement were performed with n=3, and Tables 1 to 10 and FIGS. 1 to 10 show the absorbance at the concentration of each peptide solution.

CHO DP-12 = test: Cell growth test and protein production test on each peptide and combination of peptides on coating agent; assay type: cell-based; settings: one type of tripeptide: GPP 1.1 mM, DGP 2.2 mM, GEK 2.1 mM, AGK 2.0 mM, 5 days; for Amount of protein produced, Average / Viability, Average: average n=3; for Amount of protein produced, Average / Amount of protein produced, 1 / Amount of protein produced, 2 / Amount of protein produced, 3: ELISA; for Cells cell count, Average: poly-L-lysine coating, n=3; for Amount of protein produced, 1 / Viability, 1: replicate 1; for Amount of protein produced, 2 / Viability, 2: replicate 2; for Amount of protein produced, 3 / Viability, 3: replicate 3
Protocol: Peptides having the sequences of Gly-Pro-Pro (GPP), Asp-Gly-Pro (DGP), Gly-Glu-Lys (GEK), and Ala-Gly-Lys (AGK) were synthesized to prepare each peptide solution such that the concentration was a concentration at which the cell number increased the most within a range of 0 mM to 5 mM. In other words, Gly-Pro-Pro (GPP) was adjusted to 11 mM, Asp-Gly-Pro (DGP) was adjusted to 22 mM, Gly-Glu-Lys (GEK) was adjusted to 21 mM, and Ala-Gly-Lys (AGK) was adjusted to 20 mM, and an amount of 1/10 of the total culture medium volume was added to each well immediately before the cell culture test such that final concentrations were 1.1 mM, 2.2 mM, 2.1 mM, and 2.0 mM, respectively. Poly-L-lysine (Peptide Institute, Inc., Poly-L-Lysine Hydrochloride, code: 3075) was prepared to 0.1 mg/mL, and 200 μL was dispensed into each well of a 24-well plate, which was left to stand in an incubator at 37° C. for 2 hours. After removing the residual liquid with an aspirator, rinsing was performed with distilled water, irradiation was performed with a UV lamp in a clean bench without a lid, and drying was performed overnight to sterilize. A cell suspension prepared such that CHO DP-12 (ATCC, Cat. No. CRL-12445) was at 2×10^4 cells/well and 500 μL was seeded in a 24-well plate and cultured in an incubator at 37° C. and 5% CO2 for 24 hours. As a culture medium, a DMEM basal medium in which 200 nM of methotrexate and 2 μg/mL of insulin were blended in a DMEM culture medium (Gibco) containing 10% FBS was used.
After removing the culture medium from each well and washing with the DMEM basal medium (500 μL), 450 μL of a new DMEM basal medium was dispensed into each well, and each peptide solution (50 μL) was added (total 500 μL/well) to perform culture for 5 days.
As peptides, in addition to single GPP, DGP, GEK, and AGK, combinations of GPP+GEK, GPP+AGK, DGP+GEK, GEK+AGK, DGP+AGK, GPP+GEK+AGK, GPP+DGP+AGK, and GPP+DGP+GEK were used. A similar culture test was performed using a system containing neither peptide nor FBS as a comparative sample.
In order to measure the amount of protein produced, 100 μL of the culture medium supernatant was recovered in a 1.5 mL tube and diluted to quantitatively determine the amount of protein produced by an ELISA method.
In order to recover the cells, the culture medium in each well was recovered in a 1.5 mL tube to be rinsed with 200 μL of the DMEM basal medium, and the rinsed liquid was also recovered in the same 1.5 mL tube. Thereafter, 100 μL of trypsin was added and incubated for 3 minutes. After rinsing with 300 μL of the DMEM basal medium containing 10% FBS, the rinsed liquid was also recovered in the same 1.5 mL tube. After rinsing again with 200 μL of the DMEM basal medium containing 10% FBS, the rinsed liquid was also recovered in the same 1.5 mL tube.
A centrifugation operation was performed on the cells recovered in the 1.5 mL tube. The centrifugation conditions were 1,000 rpm, 10 minutes, and 4° C.
The supernatant was removed, and 300 μL of Cold PBS (phosphate buffered saline) was added to perform a centrifugation operation under the same conditions. The present operation was repeated twice.
Suspension was carried out with 100 μL of Binding Buffer, and 2 μL of propidium iodide (PI) was added and stirred in the tube to cause a reaction for 15 minutes at room temperature and with light shielding. Thereafter, the viable cell count and the cell viability were measured with a flow cytometer.
The above preparation, culture, and measurement were performed with n=3. Table 17, FIG. 17, Table 20, FIG. 20, Table 23, and FIG. 23 show the viable cell count in each peptide solution. Table 18, FIG. 18, Table 21, FIG. 21, Table 24, and FIG. 24 show the cell viability in each peptide solution. Table 19, FIG. 19, Table 22, FIG. 22, Table 25, and FIG. 25 show the amount of protein produced in each peptide solution.

Row | Compound | cell growth promotion, order of the peptides (CHO-K1) | Amount of protein produced, Average (CHO DP-12) [mg/L] | Viability, Average (CHO DP-12) | Cells cell count, Average (CHO DP-12) | Amount of protein produced, 1 (CHO DP-12) [mg/L] | Viability, 1 (CHO DP-12) | Amount of protein produced, 2 (CHO DP-12) [mg/L] | Viability, 2 (CHO DP-12) | Amount of protein produced, 3 (CHO DP-12) [mg/L] | Viability, 3 (CHO DP-12) | also measured
1 | C[C@H](N)C(=O)NCC(=O)N[C@@H](CCCCN)C(=O)O [AGK, Ala-Gly-Lys] (H-Ala-Gly-Lys-OH; N-terminus and C-terminus assumed) | cell growth was promoted | 6.92 | 88.5 | 19.0887 ×10^4 | 7.36 | 89.0 | 6.61 | 88.5 | 6.78 | 88.1 | Absorbance (450 nm) (CHO-K1; 0.123 mM peptide): 0.0180; Absorbance (450 nm) (CHO-K1; 0.247 mM peptide): 0.1440; Absorbance (450 nm) (CHO-K1; 0.494 mM peptide): 0.3360; Absorbance (450 nm) (CHO-K1; 0.99 mM peptide): 0.5380; Absorbance (450 nm) (CHO-K1; 1.97 mM peptide): 0.6613; Absorbance (450 nm) (CHO-K1; 3.95 mM peptide): 0.4693
2 | NCCCC[C@H](NC(=O)[C@H](CCC(=O)O)NC(=O)CN)C(=O)O [GEK, Gly-Glu-Lys] (H-Gly-Glu-Lys-OH; N-terminus and C-terminus assumed) | cell growth was promoted | 5.59 | 86.9 | 15.9345 ×10^4 | 6.13 | 86.5 | 4.59 | 87.4 | 6.06 | 86.7 | Absorbance (450 nm) (CHO-K1; 0.128 mM peptide): −0.0903; Absorbance (450 nm) (CHO-K1; 0.257 mM peptide): 0.0657; Absorbance (450 nm) (CHO-K1; 0.512 mM peptide): 0.3020; Absorbance (450 nm) (CHO-K1; 1.02 mM peptide): 0.6377; Absorbance (450 nm) (CHO-K1; 2.05 mM peptide): 1.0050; Absorbance (450 nm) (CHO-K1; 4.10 mM peptide): 0.5757
3 | Asp-Gly-Pro [DGP] | cell growth was promoted | 5.24 | 86.9 | 14.6333 ×10^4 | 5.37 | 86.3 | 4.90 | 87.3 | 5.44 | 87.2 | Absorbance (450 nm) (CHO-K1; 0.138 mM peptide): 0.0957; Absorbance (450 nm) (CHO-K1; 0.278 mM peptide): 0.2464; Absorbance (450 nm) (CHO-K1; 0.555 mM peptide): 0.4127; Absorbance (450 nm) (CHO-K1; 1.11 mM peptide): 0.5617; Absorbance (450 nm) (CHO-K1; 2.22 mM peptide): 0.7657; Absorbance (450 nm) (CHO-K1; 4.44 mM peptide): 0.4004
4 | Gly-Pro-Pro [GPP] | cell growth was promoted | 5.86 | 88.2 | 15.5502 ×10^4 | 5.78 | 88.9 | 5.31 | 87.9 | 6.50 | 87.9 | Absorbance (450 nm) (CHO-K1; 0.137 mM peptide): 0.1163; Absorbance (450 nm) (CHO-K1; 0.276 mM peptide): 0.2303; Absorbance (450 nm) (CHO-K1; 0.550 mM peptide): 0.4117; Absorbance (450 nm) (CHO-K1; 1.10 mM peptide): 0.6443; Absorbance (450 nm) (CHO-K1; 2.20 mM peptide): 0.5700; Absorbance (450 nm) (CHO-K1; 4.40 mM peptide): 0.3620
